In US5430062A, “Stilbene derivatives as anticancer agents” (priority 1993, dated 1995):
Counter-ions that a name gives are not always drawn. Like-named read-outs stand apart in the source and are kept apart here.

Experiments:
tubulin = assay: Inhibition of tubulin polymerization (turbidimetry); assay type: biochemical, bovine
MLM melanoma = assay: MTT cytotoxicity assay, MLM
A-549 lung carcinoma = assay: MTT cytotoxicity assay, A-549; details: for IC50: Homo sapiens, A549, […]
MCF-7 breast carcinoma = assay: MTT cytotoxicity assay, MCF-7; details: for IC50: Homo sapiens, MCF7, […]
[1] = test system: HT-29 colon adenocarcinoma; assay: MTT cytotoxicity assay, HT-29; details: for IC50: Homo sapiens, HT-29, […]
SKMEL-5 melanoma = assay: MTT cytotoxicity assay, SKMEL-5; details: for IC50: Homo sapiens, SK-MEL-5, […], read-out: Cytotoxicity ED50, SKMEL-5
[2] = second series (Tables V-VII, IX), read-out: Inhibition of Tubulin Polymerization IC50 (±S.D.)
[3] = read-out: Cytotoxicity ED50, MLM
[4] = read-out: Cytotoxicity ED50, A-549
[5] = read-out: Cytotoxicity ED50, MCF-7
[6] = read-out: Cytotoxicity ED50, HT-29

Compound	IC50 (MLM melanoma; [3]) [µM]	IC50 (A-549 lung carcinoma; [4]) [µM]	IC50 (MCF-7 breast carcinoma; [5]) [µM]	IC50 [1, 6] [µM]	IC50 (SKMEL-5 melanoma) [µM]	other results
COc1ccc(/C=C\c2cc(OC)c(O[Si](C)(C)C(C)(C)C)c(OC)c2)cc1 [15k, (Z)-1-[4-{(t-Butyldimethylsilyl)-oxy}-3,5-(dimethoxy)-phenyl]-2-(4-methoxyphenyl)ethene]	> 25	> 25	> 25	9	> 25	IC50 (tubulin; [2]): > 40 µM
COc1cc(/C=C\c2ccc(SC)cc2)cc(OC)c1OC [compound 15c, (Z)-1-(4-Methylthiophenyl)-2-(3,4,5-trimethoxyphenyl)ethene]	0.0033	0.00019	0.0054	1.8e-05	4e-06	IC50 (tubulin; [2]): 6.2 µM; cytotoxicity relative to parent (in words) (MLM melanoma; MLM): as cytotoxic as the parent compound; cytotoxicity relative to parent (in words) (A-549 lung carcinoma; A-549): as cytotoxic as the parent compound; cytotoxicity relative to 5a (in words) (MCF-7 breast carcinoma; MCF cell culture): about one order of magnitude less cytotoxic than 5a; cytotoxicity relative to 5a (in words) ([1]; HT-29 cells): about one order of magnitude more potent; cytotoxicity relative to 5a (in words) (SKMEL-5 melanoma; SKMEL-5 cells): two orders of magnitude more potent
COc1cccc(/C=C(/C(=O)O)c2cc(OC)c(OC)c(OC)c2)c1 [compound 23b, (E)-3-(3-Methoxyphenyl)-2-(3,4,5-trimethoxyphenyl)-prop-2-enoic acid]	> 25	0.025	> 25	0.12	0.05	IC50 (tubulin; [2]): > 40 µM
COc1cc(CCc2ccc(C)cc2)cc(OC)c1OC [17d, 1-(4-Methylphenyl)-2-(3,4,5-trimethoxyphenyl)ethane]	1.4	0.18	0.22	0.1	0.27	IC50 (tubulin; [2]): 21 µM
COc1ccc(/C=C\c2cc(OC)c(OCc3ccccc3)c(OC)c2)cc1 [15j, (Z)-1-[4-(Benzyloxy)-3,5-(dimethoxy)phenyl]-2-(4-methoxyphenyl)ethene]						IC50 (tubulin; [2]): > 40 µM
COc1ccc(Cc2c3cc(OC)c(OC)c(OC)c3cc[n+]2C)cc1 [compound 37, 1-(4'-Methoxybenzyl)-5,6,7-trimethoxyisoquinoline Methiodide]	> 25	19.5	> 25	20.5	2.1	IC50 (tubulin; [2]): > 40 µM
COc1cc2ccc3c(OC)cccc3c2c(OC)c1OC [32d, 2,3,4,8-Tetramethoxyphenanthrene]	> 25	> 25	14.6	9.3	12	IC50 (tubulin; [2]): > 40 µM
COc1cc(CCc2ccc(N)cc2)cc(OC)c1OC [compound 8z, 1-(4-Aminophenyl)-2-(3,4,5-trimethoxyphenyl)ethane]	> 25	12.2	11.9	24.6	12.7	inhibition of tubulin polymerization (in words) (tubulin): lower activity
COc1ccc(/C=C\c2cc(OC)c(OC(C)=O)c(OC)c2)cc1 [15l, (Z)-1-(4-Acetoxy-3,5-dimethoxyphenyl)-2-(4-methoxyphenyl)ethene]	> 25	21.5	> 25	8.7	0.6	IC50 (tubulin; [2]): 24 µM
COc1ccc(/C=C\c2ccc(OC)c(OC)c2OC)cc1 [5d, (Z)-1-(4-Methoxyphenyl)-2-(2,3,4-trimethoxy-phenyl)ethene]	10.9	0.97	0.23	1	1.1	inhibition of tubulin polymerization (class) (tubulin): inactive
COc1ccc(NC(=O)c2cc(OC)cc(OC)c2)cc1 [11d]	> 25	9.02	5.47	14.5	11.9	inhibition of tubulin polymerization (in words) (tubulin): lower inhibitory activity
COc1ccc(/C=C\c2cc(OC)c(OC)c(OC)c2)cc1 [compound E, reference compound]						IC50 (tubulin; Table X footnote b, different glutamate preparation, read-out: tubulin polymerization IC50, standard agents): 1.2 ± 0.05 µM
COc1ccc(CCc2ccccc2)c(OC)c1OC [8r]	> 25	> 25	> 25	> 25	> 25	
COc1cccc(CCc2cc(OC)c(OC)c(OC)c2)c1 [8b]	> 25	11.7	12.4	7.6	9.2	
CCCc1ccc(NCc2cc(OC)c(OC)c(OC)c2)cc1 [110g, 4-n-Propyl-N-(3,4,5-trimethoxybenzyl)aniline Hydrochloride]						IC50 (tubulin; Table X, different glutamate preparation (1M monosodium glutamate and GTP), read-out: inhibn of tubulin polymn IC50 (±SD)): > 40 µM
COc1cc(CCc2cc(OC)c(OC)c(OC)c2)cc(OC)c1OC [8u]	> 25	> 25	> 25	> 25	> 25	
COc1cc(/C=C/c2ccc(Cl)cc2)cc(OC)c1OC [6g]	> 25	> 25	> 25	> 25	> 25	
COc1cc(/C=C/c2ccc(N)cc2)cc(OC)c1OC [6z, (E)-1-(4-Aminophenyl)-2-(3,4,5-trimethoxyphenyl)ethene]	> 25	> 25	> 25	> 25	> 25	

Compound	IC50 (MLM melanoma; [3]) [µM]	IC50 (A-549 lung carcinoma; [4]) [µM]	IC50 (MCF-7 breast carcinoma; [5]) [µM]	IC50 [1, 6] [µM]	IC50 (SKMEL-5 melanoma) [µM]	other results
COc1cccc(/C=C/c2cc(OC)c(OC)c(OC)c2)c1 [6b]					10.5	IC50 (MLM melanoma; read-out: Cytotoxicity ED50, MLM, MLM, MTT, six days): > 25 µM; IC50 (A-549 lung carcinoma; read-out: Cytotoxicity ED50, A-549, A-549, MTT, six days): 9.8 µM; IC50 (MCF-7 breast carcinoma; read-out: Cytotoxicity ED50, MCF-7, MCF-7, MTT, six days): 12.2 µM; IC50 ([1]; read-out: Cytotoxicity ED50, HT-29, HT-29, MTT, six days): 7.3 µM
COc1ccc(C(=O)Nc2cc(OC)cc(OC)c2)cc1 [11e]	> 25	> 25	> 25	> 25	> 25	
COc1cc(/C=C/c2ccncc2)cc(OC)c1OC [6i, 1-(4-Pyridyl)-2-(3,4,5-trimethoxyphenyl)ethene]	> 25	> 25	> 25	> 25	> 25	
COc1cc(/C=C/c2cc(OC)c(OC)c(OC)c2)cc(OC)c1 [6s]	> 25	> 25	> 25	> 25	> 25	
COc1cc(CCc2ccccc2)cc(OC)c1OC [8f]	> 25	> 25	> 25	> 25	> 25	
COc1cc(CCc2ccc(OC)c(OC)c2OC)cc(OC)c1OC [8t]	> 25	> 25	> 25	> 25	> 25	
COc1cc(CCc2ccc(O)cc2)cc(OC)c1OC [8o, 1-(4-hydroxyphenyl)-2-(3,4,5-trimethoxyphenyl)ethane]	> 25	> 25	> 25	> 25	> 25	
COc1cc(/C=C/c2cccnc2)cc(OC)c1OC [6j, 1-(3-Pyridyl)-2-(3,4,5-trimethoxyphenyl)ethene]	> 25	> 25	> 25	> 25	> 25	
COc1cc(CCc2ccc(OC(C)=O)cc2)cc(OC)c1OC [8p]	> 25	19	> 25	> 25	> 25	
COc1cc(CNc2cc(OC)c(OC)c(OC)c2)cc(OC)c1OC [12f]	> 25	> 25	> 25	> 25	> 25	
COc1cc(/C=C/c2ccc(OC)c(OC)c2OC)cc(OC)c1OC [6t]	23.9	12.5	14.7	10.3	10.6	
COc1cccc2c1C(=O)c1c(O)c3c(c(O)c1C2=O)C[C@@](O)(C(=O)CO)C[C@@H]3O[C@H]1C[C@H](N)[C@H](O)[C@H](C)O1 [Adriamycin, reference compound]	0.13	0.029	0.031	0.055	0.032	
COc1cc(NC(=O)c2cc(OC)c(OC)c(OC)c2)cc(OC)c1OC [11f]	> 25	> 25	> 25	> 25	> 25	
COc1cc(/C=C/c2cc(OC)c(OC)c(OC)c2)cc(OC)c1OC [6u]	> 25	> 25	> 25	> 25	> 25	
CCc1ccc(/C=C\c2cc(OC)c(OC)c(OC)c2)cc1 [15e, (Z)-(4-Ethylphenyl)-2-(3,4,5-trimethoxyphenyl)ethene]	0.0075	0.012	0.072	0.0027	0.00086	
COc1ccccc1/C=C/c1cc(OC)c(OC)c(OC)c1 [6c]	> 25	12.2	18	12.1	13.5	
COc1cc(/C=C/c2ccccc2)cc(OC)c1OC [6f]	> 25	> 25	> 25	> 25	> 25	
COc1ccc(C(=O)Nc2cc(OC)c(OC)c(OC)c2)cc1 [11c, 4-Methoxy-N-(3,4,5-trimethoxyphenyl)benzamide]	> 25	> 25	> 25	> 25	> 25	
